In ChEMBL document CHEMBL2029319, “Kappa agonist CovX-Bodies” (Bioorg Med Chem Lett, 2012):

Legend:
[1] = target: Kappa-type opioid receptor (Cavia porcellus, UniProt P41144); assay: Agonist activity at kappa opioid receptor in guinea pig ileum assessed as electric field-stimulated response; assay type: functional, tissue-based
[2] = target: Kappa-type opioid receptor (Homo sapiens, UniProt P41145); assay: Agonist activity at recombinant kappa opioid receptor expressed in human U2OS cells coexpressing beta arrestin/EA complex assessed as beta arrestin recruitment after 60 mins by luminescence spectrophotometry; assay type: functional, cell-based
Chain of Kappa-type opioid receptor (Homo sapiens, UniProt P41145) (P41145 whole entry): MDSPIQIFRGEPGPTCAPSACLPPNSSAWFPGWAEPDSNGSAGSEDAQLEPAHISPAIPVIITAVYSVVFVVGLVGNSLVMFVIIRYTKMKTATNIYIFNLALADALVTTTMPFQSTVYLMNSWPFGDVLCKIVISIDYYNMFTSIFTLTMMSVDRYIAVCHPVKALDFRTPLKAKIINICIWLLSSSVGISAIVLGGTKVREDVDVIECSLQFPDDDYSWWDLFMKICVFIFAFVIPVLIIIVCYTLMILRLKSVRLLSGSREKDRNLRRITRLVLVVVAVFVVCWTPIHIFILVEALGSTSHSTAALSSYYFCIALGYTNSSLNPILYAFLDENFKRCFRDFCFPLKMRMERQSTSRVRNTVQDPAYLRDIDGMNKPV

Chain of Kappa-type opioid receptor (Cavia porcellus, UniProt P41144) (P41144 whole entry): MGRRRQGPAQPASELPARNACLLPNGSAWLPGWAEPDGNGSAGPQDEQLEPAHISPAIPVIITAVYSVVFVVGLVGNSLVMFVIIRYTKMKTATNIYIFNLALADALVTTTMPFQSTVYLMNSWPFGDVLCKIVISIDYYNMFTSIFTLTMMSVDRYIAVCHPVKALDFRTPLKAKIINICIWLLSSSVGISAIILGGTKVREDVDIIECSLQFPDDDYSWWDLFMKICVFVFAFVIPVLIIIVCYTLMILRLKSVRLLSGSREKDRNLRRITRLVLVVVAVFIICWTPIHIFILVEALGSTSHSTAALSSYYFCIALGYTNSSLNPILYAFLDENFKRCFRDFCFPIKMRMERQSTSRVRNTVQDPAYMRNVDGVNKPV

Structure (SMILES)	EC50 [1] [nM]	EC50 [2] [nM]
CC(C)C[C@@H](NC(=O)[C@@H](Cc1ccccc1)NC(=O)[C@H](N)Cc1ccccc1)C(=O)N[C@H](CCCCN)C(N)=O	0.22	3
CC(C)C[C@@H](NC(=O)[C@@H](Cc1ccccc1)NC(=O)[C@H](N)Cc1ccccc1)C(=O)N[C@H](CCCCN)C(=O)NCC(=O)NCCSC1CC(=O)N(c2ccc(CCC(=O)N3CCC3=O)cc2)C1=O (stereo partly drawn)		3
CC(C)C[C@@H](NC(=O)[C@@H](Cc1ccccc1)NC(=O)[C@H](N)Cc1ccccc1)C(=O)N[C@H](CCCCN)C(=O)NCC(=O)NCC(=O)NCC(=O)NCCSC1CC(=O)N(c2ccc(CCC(=O)N3CCC3=O)cc2)C1=O (stereo partly drawn)		5
CC(C)C[C@@H](NC(=O)[C@@H](Cc1ccccc1)NC(=O)[C@H](N)Cc1ccccc1)C(=O)N[C@H](CCCCN)C(=O)NCC(=O)NCCSC1CC(=O)N(CCC(=O)NCCOCCOCCC(=O)Nc2ccc(CCC(=O)N3CCC3=O)cc2)C1=O (stereo partly drawn)		1480
CC(C)C[C@@H](NC(=O)[C@@H](Cc1ccccc1)NC(=O)[C@H](N)Cc1ccccc1)C(=O)N[C@H](CCCCN)C(=O)NCC(=O)NCC(=O)NCC(=O)NCCSC1CC(=O)N(CCC(=O)NCCOCCOCCC(=O)Nc2ccc(CCC(=O)N3CCC3=O)cc2)C1=O (stereo partly drawn)		176
CC(C)C[C@@H](NC(=O)[C@@H](Cc1ccccc1)NC(=O)[C@H](N)Cc1ccccc1)C(=O)N[C@H](CCCCN)C(=O)N1CCC(CC(=O)NCCOCCOCC(=O)NCC(=O)NCc2cn(-c3ccc(C(=O)Nc4ccc(CCC(=O)N5CCC5=O)cc4)cc3)nn2)CC1	0.2	
CC(C)C[C@@H](NC(=O)[C@@H](Cc1ccccc1)NC(=O)[C@H](N)Cc1ccccc1)C(=O)N[C@H](CCCCN)C(=O)N1CCC(C(=O)NCCOCCOCC(=O)NCC(=O)NCc2cn(-c3ccc(C(=O)Nc4ccc(CCC(=O)N5CCC5=O)cc4)cc3)nn2)CC1	0.1	
